Measurements reported in ChEMBL document CHEMBL6078640, “Trivalent oleanolic acid-glucose conjugates: Synthesis and efficacy against Influenza A virus” (Eur J Med Chem, 2024).
pIC50: −log10 of the molar value. The source made the active and inactive calls. No cut-off for these calls is given here.

Experiments:
[1] = system: Influenza A virus; experiment: Antiviral activity against influenza A virus A/WSN/33 (H1N1) in MDCK cells assessed as reduction in NP expression preincubated with cells at 24 hrs followed by compound addition and measured at 0 to 10 hrs post infection by time of addition assay; assay type: functional, organism-based; conditions: time 0-10 hrs
[2] = system: Influenza A virus; experiment: Antiviral activity against Influenza A virus A/WSN/33(H1N1) infected in female BALB/c kunming mouse assessed as reduction in lung index at 6.25 mg/kg/day, administered intranasally once per day for 7 days starting from 24 hrs post-viral infection and measured daily; assay type: functional; conditions: time 7 day
[3] = system: Influenza A virus; experiment: Antiviral activity against Influenza A virus A/WSN/33(H1N1) infected in female BALB/c kunming mouse assessed as delayed the median time of animal death at 0.125 mg/kg, administered intranasally once per day for 7 days starting from 24 hrs post-viral infection and measured daily; assay type: functional, organism-based; conditions: time 7.0 day
[4] = system: Influenza A virus; experiment: Antiviral activity against Influenza A virus A/WSN/33(H1N1) infected in female BALB/c kunming mouse assessed as protection of mouse at 0.25 mg/kg, administered intranasally once per day for 7 days starting from 24 hrs post-viral infection and measured daily; assay type: functional, organism-based; conditions: time 7.0 day
[5] = system: Influenza A virus; experiment: Antiviral activity against influenza A virus A/WSN/33 (H1N1) in MDCK cells assessed as reduction in M mRNA level preincubated with cells at 24 hrs followed by compound addition and measured at 0 to 2 hrs post infection by RT-qPCR analysis; assay type: functional, organism-based; conditions: time 0-2 hrs
[6] = system: Influenza A virus; experiment: Antiviral activity against Influenza A virus H1N1 infected in MDCK cells assessed as inhibition of viral growth at 100 uM relative to control; assay type: functional
[7] = Cytotoxicity against dog MDCK cells assessed as reduction in cell viability incubated for 40 hrs by celltiter-glo assay; assay type: toxicity, cell-based, Canis lupus familiaris
[8] = system: Influenza A virus; experiment: Antiviral activity against influenza A virus A/WSN/33 (H1N1) in MDCK cells assessed as reduction in M2 expression preincubated with cells at 24 hrs followed by compound addition and measured at 0 to 2 hrs post infection by time of addition assay; assay type: functional, organism-based; conditions: time 0-2 hrs
[9] = system: Influenza A virus; experiment: Antiviral activity against Influenza A virus A/WSN/33(H1N1) infected in female BALB/c kunming mouse assessed as reduction in immune cell infiltration at 12.5 mg/kg/day, administered intranasally once per day for 7 days starting from 24 hrs post-viral infection and measured daily; assay type: functional, organism-based; conditions: time 7.0 day
[10] = system: Influenza A virus; experiment: Antiviral activity against Influenza A virus A/WSN/33(H1N1) infected in female BALB/c kunming mouse assessed as improvement in body weight administered intranasally once per day for 7 days and measured daily; assay type: functional, organism-based; conditions: dose 6.25-12.5 mg/kg/day, time 7.0 day
[11] = system: Influenza B virus; experiment: Antiviral activity against Influenza B virus […] (B/Darwin/58/2019/Yamagata); assay type: functional, organism-based
[12] = system: Influenza A virus; experiment: Antiviral activity against Influenza A virus H5N1 (A/Indonesia/5/2005 (IBCDC-RG2)); assay type: functional, organism-based
[13] = Toxicity in female BALB/c kunming mouse infected with Influenza A virus A/WSN/33(H1N1) assessed as reduction in kidney injury at 6.25 to 12.5 mg/kg/day, administered intranasally once per day for 7 days starting from 24 hrs post-viral infection by H and E staining based analysis; assay type: organism-based; conditions: in vivo, inhaled_or_intranasal, 168 h, dose 6.25-12.5 mg/kg/day, time 7 day
[14] = system: Influenza A virus; experiment: Antiviral activity against Influenza A virus A/WSN/33(H1N1) infected in female BALB/c kunming mouse assessed as reduction in lung index at 12.5 mg/kg/day, administered intranasally once per day for 7 days starting from 24 hrs post-viral infection and measured daily; assay type: functional; conditions: time 7 day
[15] = Toxicity in female BALB/c kunming mouse infected with Influenza A virus A/WSN/33(H1N1) assessed as reduction in liver injury at 6.25 to 12.5 mg/kg/day, administered intranasally once per day for 7 days starting from 24 hrs post-viral infection by H and E staining based analysis; assay type: organism-based; conditions: in vivo, inhaled_or_intranasal, 168 h, dose 6.25-12.5 mg/kg/day, time 7 day
[16] = system: Influenza A virus; experiment: Antiviral activity against influenza A virus A/WSN/33 (H1N1) in MDCK cells assessed as reduction in NP mRNA level preincubated with cells at 24 hrs followed by compound addition and measured at 0 to 2 hrs post infection by RT-qPCR analysis; assay type: functional, organism-based; conditions: time 0-2 hrs
[17] = system: Influenza A virus; experiment: Antiviral activity against influenza A virus A/WSN/33 (H1N1) in MDCK cells assessed as reduction in NP expression preincubated with cells at 24 hrs followed by compound addition and measured at 0 to 2 hrs post infection by time of addition assay; assay type: functional, organism-based; conditions: time 0-2 hrs
[18] = system: Influenza A virus; experiment: Antiviral activity against influenza A virus A/WSN/33 (H1N1) in MDCK cells assessed as reduction in NP mRNA level preincubated with cells at 24 hrs followed by compound addition and measured at 0 to 10 hrs post infection by RT-qPCR analysis; assay type: functional, organism-based; conditions: time 0-10 hrs
[19] = system: MDCK; experiment: Cytotoxicity against dog MDCK cells assessed as reduction in cell viability at 100 uM incubated for 40 hrs by celltiter-glo assay; assay type: toxicity, cell-based, Canis lupus familiaris
[20] = system: Influenza A virus; experiment: Antiviral activity against Influenza A virus H1N1 infected in MDCK cells assessed as reduction in cytopathic effect at 100 uM pretreated with cells followed by viral infection and measured after 40 hrs by fluorescence based microplate reader analysis; assay type: functional, organism-based
[21] = system: Influenza A virus; experiment: Antiviral activity against influenza A virus A/WSN/33(H1N1) infected in MDCK cells assessed as inhibition of viral-induced cytopathic effect pretreated with cells followed by viral infection and measured after 40 hrs by fluorescence based microplate reader analysis; assay type: functional, organism-based
[22] = system: Influenza A virus; experiment: Antiviral activity against influenza A virus A/WSN/33 (H1N1) in MDCK cells assessed as reduction in M mRNA level preincubated with cells at 24 hrs followed by compound addition and measured at 0 to 10 hrs post infection by RT-qPCR analysis; assay type: functional, organism-based; conditions: time 0-10 hrs
[23] = system: Influenza A virus; experiment: Antiviral activity against Influenza A virus A/WSN/33(H1N1) infected in female BALB/c kunming mouse assessed as reduction in severe pneumonia at 12.5 mg/kg/day, administered intranasally once per day for 7 days starting from 24 hrs post-viral infection and measured daily; assay type: functional, organism-based; conditions: time 7.0 day
[24] = system: MDCK; experiment: Inhibition of Hemagglutinin in Influenza A virus H1N1 assessed as inhibition of virus-induced aggregation of chicken erythrocytes pretreated with virus followed by chicken RBC addition and measured after 30 mins by Hemagglutinin inhibition assay; assay type: cell-based; conditions: dose 0-1.94 µM
[25] = system: Influenza A virus; experiment: Antiviral activity against Influenza A virus H1N1 (A/Guangdong maonan/6WL197/2020); assay type: functional, organism-based
[26] = Selectivity index, ratio of CC50 for dog MDCK cells to IC50 for influenza A virus A/WSN/33(H1N1) infected in MDCK cells; assay type: toxicity, cell-based; conditions: read-out: Selectivity Index
[27] = system: Influenza A virus; experiment: Antiviral activity against influenza A virus A/WSN/33 (H1N1) in MDCK cells assessed as reduction in M2 expression preincubated with cells at 24 hrs followed by compound addition and measured at 0 to 10 hrs post infection by time of addition assay; assay type: functional, organism-based; conditions: time 0-10 hrs

In the case of `CC1(C)CC[C@]2(C(=O)NCc3cn([C@@H]4O[C@H](CO)[C@@H](O)[C@H](O)[C@H]4O)nn3)CC[C@]3(C)C(=CC[C@@H]4[C@@]5(C)CC[C@H](OC(=O)NCc6cn(Cc7cc(Cn8cc(CNC(=O)O[C@H]9CC[C@]%10(C)[C@H]%11CC=C%12[C@@H]%13CC(C)(C)CC[C@]%13(C(=O)NCc%13cn([C@@H]%14O[C@H](CO)[C@@H](O)[C@H](O)[C@H]%14O)nn%13)CC[C@@]%12(C)[C@]%11(C)CC[C@H]%10C9(C)C)nn8)cc(Cn8cc(CNC(=O)O[C@H]9CC[C@]%10(C)[C@H]%11CC=C%12[C@@H]%13CC(C)(C)CC[C@]%13(C(=O)NCc%13cn([C@@H]%14O[C@H](CO)[C@@H](O)[C@H](O)[C@H]%14O)nn%13)CC[C@@]%12(C)[C@]%11(C)CC[C@H]%10C9(C)C)nn8)c7)nn6)C(C)(C)[C@@H]5CC[C@]43C)[C@@H]2C1`, the Activity [1] was “Active; Compound Exerts Antiviral Effect At Early Stage Of Infection”, the Activity_index [2] was 1.7 and the Activity [3] was “Active”. The Activity [4] was “Active; Protection In 2 Out Of 4 Mouse Was Observed”, the Activity [5] was “Active; Compound Exerts Antiviral Effect At Early Stage Of Infection” and the inhibition at 100 µM [6] was greater than 75%. For the same molecule, the CC50 at 40 h [7] was greater than 100 µM, the Activity [8] was “Active; Compound Exerts Antiviral Effect At Early Stage Of Infection” and the Activity [9] was “Active”. For the same molecule, the Activity [10] was “Dose-dependent-effect”, the pIC50 [11] was 5.62 and the Activity [12] was “inactive”. The Activity [13] was “Non-toxic”, the Activity_index [14] was 1.4 and the Activity [15] was “Non-toxic”. For the same molecule, the Activity [16] was “Active; Compound Exerts Antiviral Effect At Early Stage Of Infection”, the Activity [17] was “Active; Compound Exerts Antiviral Effect At Early Stage Of Infection” and the Activity [18] was “Active; Compound Exerts Antiviral Effect At Early Stage Of Infection”. The Activity [19] was “Non-toxic”, the Activity [20] was “Active” and the pIC50 [21] was 6.33. The Activity [22] was “Active; Compound Exerts Antiviral Effect At Early Stage Of Infection”, the Activity [23] was “Active” and the inhibition [24] was “Dose-dependent-effect”. For the same molecule, the pIC50 [25] was 5.28, the selectivity ratio [26] was greater than 213 and the Activity [27] was “Active; Compound Exerts Antiviral Effect At Early Stage Of Infection”.
